Measurements as given in patent EP2966448B1, “METHOD FOR THE PREDICTION OR PROGNOSIS OF THE RESPONSE OF A HUMAN SUBJECT SUFFERING FROM CANCER TO TREATMENT WITH AN ANTAGONIST OF THE NK1 RECEPTOR” (priority 2013, dated 2014).
Like-named read-outs stand apart in the source and are kept apart here.

Legend:
[1] = test system: human primary tumor cells; assay: Inhibition of primary tumor cell cultures vs low or high expression of the truncated form of NK1 receptor (Example 5; tumor type per table line); format: cell-based; conditions: for Percentage of inhibition of cell cultures: 100 micromolar
Protocol: (§1) Cell cultures. To obtain tumor cells from human primary tumors we used the method described in De Bari et al. (De Bari et al. 2001). Briefly, small pieces of the tumors were digested into a hyaluronidase solution (Sigma-Aldrich, USA) at a concentration of 1 mg/ml during 15 minutes at 37°C, and then they were treated with 6 mg/ml of collagenase type IV (Invitrogen) during 2 hours at 37°C. Consecutively, cells were washed, and resuspended in the DMEM culture medium with high concentration of glucose (Dulbecco's Modified Eagle's Medium, Invitrogen) supplemented with 1% of antibiotics-antimycotics (Invitrogen) and with 1% of sodium pyruvate (Invitrogen), and the cells were seeded in culture slides at a concentration of 10.000 cells per square centimeter. When cells reached confluence, the adherent cells were separated using sterile trypsin at 0,5% (Invitrogen) and they were used among passages 3 and 9. For the assays shown next, tumor cells were seeded on slides at a concentration of 25.000 cells per well. A total of 6 wells containing the tumor cells were used as survival control. […] All the cultures were kept during 48 hours and later on recollected for their analysis.
The presence of the truncated form of NK1 receptor was determined and then cells were cultured in presence of several antagonists of the NK1 receptor.
In each case the presence of the truncated form of the NK1 receptor was determined.
To determine the presence of the truncated form of the gene of NK1 receptor PCR technique was performed (Polymerase Chain Reaction). The extraction of RNA, amplifications of PCR, cycle conditions and quantitative analysis were executed as it has been previously described. The specific primers were the following: For the full-length NK1R receptor (NM_001058.3; forward (SEQ ID NO: 17)-: 5'-[sequence]-3 ' and reverse- (SEQ ID NO:18): 5'-[sequence]-3') and for the truncated NK1receptor (NM_015727.2; forward (SEQ ID NO: 19): 5'-[sequence]-3 and reverse (SEQ ID NO;20): 5'-[sequence]-3').
Cases were distributed in two groups: • Group A -low expression of the truncated form of NK1 receptor- for those cases wherein the expression of the truncated form of NK1 receptor was less than double the expression of the full length form of such receptor. • Group B -high expression of the truncated form of NK1 receptor- for those cases wherein the expression of the truncated form of the NK1 receptor was higher than double the expression of the full length form of such receptor.
The percentages of inhibition are expressed in percentage of variation in relation to the control ± standard deviation.

Prostate carcinoma = assay: Inhibition of primary tumor cell cultures vs Kras mutation (Example 2); format: cell-based, human; conditions: Homo sapiens, 100 micromolar, read-out: Percentage of inhibition of cell cultures
Protocol: as §1
(§2) In each case the presence or not of mutations in K-ras gene was determined.
(§3) To determine the existence of mutations in the K-ras gene DNA from cancer tumor cells was extracted from samples obtained from the different cancer tumor cells, using DNA extraction kits from Takara (Madison, WI, US) or Ambion (Huntingdon, Cambridgeshire, United Kingdom), following the manufacturer's instructions, and as it has been previously published (Di Fiore F, et al. 2007). Consecutively it was analyzed by sequencing the exon 2 of the KRAS gene, , by means of PCR amplification from previously extracted cancer tumor DNA, using the following sense primer (SEQ ID NO. 15): 5'-[sequence]-3' and anti-sense primer (SEQ ID NO. 16): 5'-[sequence]-3'. After the purification using the Qiagen extraction kit, the PCR products were sequenced using the Big Dye Terminator Kit V3.1 (Applied Biosystems, Foster City, CA, U.S.) and an ABI Prism 377 or 3100 DNA sequencer (Applied Biosystems). The presence of a heterozygous mutation in the KRAS gene in cancer tumor cells of the cultures was defined as the appearance of a mutant peak of a height of at least a third of the wild type. All the sequence analysis were executed at least twice in two independent PCR.
(§4) The percentages of inhibition are expressed in percentage of variation in relation to control ± standard deviation.

Burkitt Lymphoma [2] = assay: as above; format: cell-based, human; conditions: Homo sapiens, 100 micromolar, read-out: Percentage of inhibition of cell cultures
Protocol: as §1, §2, §3
(§5) The antibody against NK1 receptor (Table 16) was used at 1/50 concentration. The percentages of inhibition are expressed in percentage of variation in relation to control ± standard deviation.

[3] = test system: Urinary bladder carcinoma; assay: Inhibition of primary tumor cell cultures (48 hours) vs NK1 receptor immunostaining (Example 1); format: cell-based; conditions: Homo sapiens, 1 micromolar, read-out: Percentage of inhibition of cell cultures
Protocol: as §1
(§6) Immunohistochemistry techniques. The presence of NK1 receptors was also analyzed using immunohistochemistry techniques. Briefly, a sample of each of the cultures of the cell lines used in the present invention, was centrifuged (5 minutes at 1.500 rpm) and the pellet obtained was dehydrated using increasing concentrations of ethanol and, finally, xylol. Then, said dehydrated samples were embedded in paraffin, creating a block of cells. Such paraffin blocks were cut with a microtome at 5 microns thickness, and were placed on microscope slides adequate to perform immunohistochemistry techniques. Consecutively, they were de-paraffinized by immersing them in xylol, to be finally hydrated using a solution containing decreasing concentrations of ethanol, and finally submerged them into water. […] After this, the samples were left to cool down at room temperature for 10 minutes. The endogenous peroxidase activity was blocked with 3% peroxide of hydrogen for 30 minutes at room temperature. After washing the samples with 0.05 M of Tris buffer, they were incubated with 10% non-immune pork serum at for 30 minutes at room temperature. To analyze the expression of NK1 receptors, the cellular samples were incubated in the presence of anti-NK1 antibodies (S8305, Sigma-Aldrich) diluted 1:1000, overnight at 4°C. Afterwards, the samples were washed in Tris buffer 0.05 M at room temperature. The next step was the addition of Envision System-HRP (Dako) reagents for 30 minutes at room temperature. Then, the samples were washed again in Tris buffer 0.05 M and the immunoreactivity was visualized through light microscopy with a chromogenic solution containing 3,3'-Diaminobenzidine (DAB+; Dako, USA). To differentiate the cell nuclei, they were slightly stained with hematoxylin. As negative control, it was used samples not incubated with the primary antibody anti-NK1, which was replaced by non-immune serum. All the samples were evaluated.
(§7) To value the immunostaining in each of the cases six cuts were performed to be analyzed by the immunohistochemistry technique. In each of the six cuts, it was counted cells in 20 fields (magnification 400x) using an Olympus microscope (model CX31). In each field it was counted the total number of cells and the number of cells presenting immunostaining, calculating afterwards the percentage of cells which presented immunostaining.

[4] = test system: Malignant Fibrous Histiocytoma; assay: as above; format: cell-based; conditions: Homo sapiens, 1 micromolar, read-out: Percentage of inhibition of cell cultures
Protocol: as §1, §6, §7

[5] = test system: Renal cell carcinoma (clear cell renal cell carcinoma); assay: Inhibition of primary tumor cell cultures vs Kras mutation (Example 2); format: cell-based, human; conditions: Homo sapiens, 100 micromolar, read-out: Percentage of inhibition of cell cultures
Protocol: as §1, §2, §3, §5

Myeloma = assay: Inhibition of primary tumor cell cultures (48 hours) vs NK1 receptor immunostaining (Example 1); format: cell-based; conditions: Homo sapiens, 1 micromolar, read-out: Percentage of inhibition of cell cultures
Protocol: as §1, §6, §7

[6] = test system: Pancreatic carcinoma (Adenocarcinoma); assay: Inhibition of primary tumor cell cultures vs Kras mutation (Example 2); format: cell-based, human; conditions: Homo sapiens, 100 micromolar, read-out: Percentage of inhibition of cell cultures
Protocol: (§8) Cell cultures. […] Briefly, small pieces of the tumors were digested into a hyaluronidase solution (Sigma-Aldrich, USA) at a concentration of 1 mg/ml during 15 minutes at 37°C, and then they were treated with 6 mg/ml of collagenase type IV (Invitrogen) during 2 hours at 37°C. Consecutively, cells were washed, and resuspended in the DMEM culture medium with high concentration of glucose (Dulbecco's Modified Eagle's Medium, Invitrogen) supplemented with 1% of antibiotics-antimycotics (Invitrogen) and with 1% of sodium pyruvate (Invitrogen), and the cells were seeded in culture slides at a concentration of 10.000 cells per square centimeter. When cells reached confluence, the adherent cells were separated using sterile trypsin at 0,5% (Invitrogen) and they were used among passages 3 and 9. For the assays shown next, tumor cells were seeded on slides at a concentration of 25.000 cells per well. A total of 6 wells containing the tumor cells were used as survival control. […] All the cultures were kept during 48 hours and later on recollected for their analysis.
as §2, §3, §5

Glioma = assay: Inhibition of primary tumor cell cultures (48 hours) vs NK1 receptor immunostaining (Example 1); format: cell-based; conditions: Homo sapiens, 1 micromolar, read-out: Percentage of inhibition of cell cultures
Protocol: as §1, §6, §7

[7] = test system: Undifferentiated Pleomorphic Sarcoma (malignant fibrous histiocytoma grade 3); assay: Inhibition of primary tumor cell cultures vs Kras mutation (Example 2); format: cell-based, human; conditions: Homo sapiens, 100 micromolar, read-out: Percentage of inhibition of cell cultures
Protocol: as §1, §2, §3, §4

[8] = test system: human primary tumor cells; assay: Inhibition of primary tumor cell cultures vs absence or presence of AKT protein (Example 4; tumor type per table line); format: cell-based; conditions: cancer cell cultures showing more presence of AKT, compared; non-peptidic antagonists 100 micromolar, antibody 1/50
Protocol: as §8
Afterwards, the cells were cultured in presence of several antagonists of the NK1 receptor.
In each case it was determined the presence or absence of the AKT protein effector downstream in the PI3 Kinases pathway.
To determine the presence of the AKT protein in the different cultures Western Blot technique was performed (following the description in example 1-Western Blot section), but using as primary antibody with reference: Akt (pan) (11E7) Rabbit mAb (4685, Cell Signalling).
The antibody against NK1 receptor (Table 26) was used at 1/50 concentration. The percentages of inhibition are expressed in percentage of variation in relation to control ± standard deviation.

[9] = test system: Lung carcinoma (non small cell type); assay: Inhibition of primary tumor cell cultures (48 hours) vs NK1 receptor immunostaining (Example 1); format: cell-based; conditions: Homo sapiens, 1 micromolar, read-out: Percentage of inhibition of cell cultures
Protocol: as §1, §6, §7

Burkitt Lymphoma [10] = assay: as above; format: cell-based; conditions: Homo sapiens, 1 micromolar, read-out: Percentage of inhibition of cell cultures
Protocol: as §1, §6, §7

[11] = Cases with Kras non-mutated (wild type)
[12] = NK1 receptor immunostaining Group 1 (less than 20% of the cells)
[13] = NK1 receptor immunostaining Group 2 (20-80% of the cells)
[14] = NK1 receptor immunostaining Group 3 (more than 80% of the cells)
[15] = NK1 receptor immunostaining Intensity grade 1
[16] = NK1 receptor immunostaining Intensity grade 2
[17] = NK1 receptor immunostaining Intensity grade 3

CC(=O)N1CCN([C@H]2CCN(C(=O)N(C)[C@H](C)c3cc(C(F)(F)F)cc(C(F)(F)F)c3)[C@@H](c3ccc(F)cc3C)C2)CC1 [Casopitant]
Percentage of inhibition of cell cultures ([1]; Glioma (astrocytoma), Cases with high expression of the truncated form of NK1 receptor (Group B)): 95±7 percentage | Percentage of inhibition of cell cultures ([1]; Glioma (astrocytoma), Cases with low expression of the truncated form of NK1 receptor (Group A)): 24±5 percentage | Percentage of inhibition of cell cultures ([1]; Lung carcinoma (non small cell lung carcinoma), Cases with high expression of the truncated form of NK1 receptor (Group B)): 95±6 percentage | Percentage of inhibition of cell cultures ([1]; Lung carcinoma (non small cell lung carcinoma), Cases with low expression of the truncated form of NK1 receptor (Group A)): 25±4 percentage | Percentage of inhibition of cell cultures ([1]; Melanoma (Nodular Melanoma), Cases with high expression of the truncated form of NK1 receptor (Group B)): 96±6 percentage | Percentage of inhibition of cell cultures ([1]; Melanoma (Nodular Melanoma), Cases with low expression of the truncated form of NK1 receptor (Group A)): 23±5 percentage | Percentage of inhibition of cell cultures ([1]; Non Hodgkin Lymphoma B (diffuse B cell lymphoma), Cases with high expression of the truncated form of NK1 receptor (Group B)): 97±4 percentage | Percentage of inhibition of cell cultures ([1]; Non Hodgkin Lymphoma B (diffuse B cell lymphoma), Cases with low expression of the truncated form of NK1 receptor (Group A)): 24±3 percentage | Percentage of inhibition of cell cultures ([1]; Non Hodgkin Lymphoma T (diffuse T cell lymphoma), Cases with high expression of the truncated form of NK1 receptor (Group B)): 98±3 percentage | Percentage of inhibition of cell cultures ([1]; Non Hodgkin Lymphoma T (diffuse T cell lymphoma), Cases with low expression of the truncated form of NK1 receptor (Group A)): 23±4 percentage | Percentage of inhibition of cell cultures ([1]; Prostate carcinoma, Cases with high expression of the truncated form of NK1 receptor (Group B)): 94±4 percentage | Percentage of inhibition of cell cultures ([1]; Prostate carcinoma, Cases with low expression of the truncated form of NK1 receptor (Group A)): 23±6 percentage | Percentage of inhibition of cell cultures ([1]; Thyroid carcinoma (follicular carcinoma), Cases with high expression of the truncated form of NK1 receptor (Group B)): 93±4 percentage | Percentage of inhibition of cell cultures ([1]; Thyroid carcinoma (follicular carcinoma), Cases with low expression of the truncated form of NK1 receptor (Group A)): 23±3 percentage | Percentage of inhibition of cell cultures ([1]; Thyroid carcinoma (papillary carcinoma), Cases with high expression of the truncated form of NK1 receptor (Group B)): 94±5 percentage | Percentage of inhibition of cell cultures ([1]; Thyroid carcinoma (papillary carcinoma), Cases with low expression of the truncated form of NK1 receptor (Group A)): 24±5 percentage | Percentage of inhibition of cell cultures ([1]; Undifferentiated Pleomorphic Sarcoma (malignant fibrous histiocytoma grade 3), Cases with high expression of the truncated form of NK1 receptor (Group B)): 94±5 percentage | Percentage of inhibition of cell cultures ([1]; Undifferentiated Pleomorphic Sarcoma (malignant fibrous histiocytoma grade 3), Cases with low expression of the truncated form of NK1 receptor (Group A)): 25±4 percentage | Percentage of inhibition of cell cultures ([1]; Urinary bladder carcinoma (transitional cell carcinoma), Cases with high expression of the truncated form of NK1 receptor (Group B)): 95±7 percentage | Percentage of inhibition of cell cultures ([1]; Urinary bladder carcinoma (transitional cell carcinoma), Cases with low expression of the truncated form of NK1 receptor (Group A)): 25±4 percentage | inhibition of cell proliferation ([1]; cancer cell cultures that show more expression of the truncated form of NK1 receptor, compared, non-peptidic antagonists 100 micromolar, antibody 1/50): higher inhibition | inhibition at 100 µM (Prostate carcinoma; Cases with Kras mutated): 23 ± 3% | inhibition at 100 µM (Prostate carcinoma; [11]): 93 ± 7% | inhibition at 100 µM (Burkitt Lymphoma [2]; Cases with Kras mutated): 25 ± 2% | inhibition at 100 µM (Burkitt Lymphoma [2]; [11]): 92 ± 5% | inhibition at 1 µM [3, 12]: 17 ± 3% | inhibition at 1 µM [3, 13]: 45 ± 3% | inhibition at 1 µM [3, 14]: 94 ± 6% | inhibition at 1 µM [3, 15]: 34 ± 4% | inhibition at 1 µM [3, 16]: 56 ± 4% | inhibition at 1 µM [3, 17]: 93 ± 4% | inhibition at 1 µM [4, 12]: 14 ± 3% | inhibition at 1 µM [4, 13]: 46 ± 4% | inhibition at 1 µM [4, 14]: 94 ± 5% | inhibition at 1 µM [4, 15]: 32 ± 5% | inhibition at 1 µM [4, 16]: 53 ± 4% | inhibition at 1 µM [4, 17]: 93 ± 2% | inhibition at 100 µM ([5]; Cases with Kras mutated): 27 ± 4% | inhibition at 100 µM [5, 11]: 94 ± 3% | inhibition at 1 µM (Myeloma; [12]): 16 ± 3% | inhibition at 1 µM (Myeloma; [13]): 47 ± 4% | inhibition at 1 µM (Myeloma; [14]): 94 ± 5% | inhibition at 1 µM (Myeloma; [15]): 35 ± 3% | inhibition at 1 µM (Myeloma; [16]): 55 ± 3% | inhibition at 1 µM (Myeloma; [17]): 93 ± 3% | inhibition at 100 µM ([6]; Cases with Kras mutated): 27 ± 3% | inhibition at 100 µM [6, 11]: 93 ± 4% | inhibition at 1 µM (Glioma; [12]): 16 ± 3% | inhibition at 1 µM (Glioma; [13]): 46 ± 4% | inhibition at 1 µM (Glioma; [14]): 93 ± 5% | inhibition at 1 µM (Glioma; [15]): 36 ± 3% | inhibition at 1 µM (Glioma; [16]): 54 ± 5% | inhibition at 1 µM (Glioma; [17]): 91 ± 3% | inhibition at 100 µM ([7]; Cases with Kras mutated): 26 ± 5% | inhibition at 100 µM [7, 11]: 95 ± 5% | inhibition of cell proliferation [8]: higher inhibition | inhibition at 1 µM [9, 12]: 10 ± 2% | inhibition at 1 µM [9, 13]: 46 ± 2% | inhibition at 1 µM [9, 14]: 92 ± 5% | inhibition at 1 µM [9, 15]: 32 ± 4% | inhibition at 1 µM [9, 16]: 54 ± 4% | inhibition at 1 µM [9, 17]: 93 ± 3% | inhibition at 1 µM (Burkitt Lymphoma [10]; [12]): 15 ± 3% | inhibition at 1 µM (Burkitt Lymphoma [10]; [13]): 46 ± 5% | inhibition at 1 µM (Burkitt Lymphoma [10]; [14]): 94 ± 5% | inhibition at 1 µM (Burkitt Lymphoma [10]; [15]): 37 ± 5% | inhibition at 1 µM (Burkitt Lymphoma [10]; [16]): 55 ± 3% | inhibition at 1 µM (Burkitt Lymphoma [10]; [17]): 93 ± 3%
